{"source": "paper PMC3145338", "about": "(Journal of the American Chemical Society, 2011)", "origin": "cited, not measured here", "conditions": "BCA; for Kd: read-out: Kd^surf", "key": {"[1]": {"conditions": "SAM ligand 2, χ = 0.05, ref [Mrskich, 1995]"}, "[2]": {"conditions": "SAM ligand 2, ref [Lahiri, 1999a]"}, "[3]": {"conditions": "SAM ligand 2, ref [Lahiri, 1999b]"}}, "note": "Where two headings read alike, the source gives them in different places. Marks after values point to notes of the source that are not given here.", "data": [{"substance": "BCA: bovine carbonic anhydrase", "values": [{"measurement": "koff^surf", "setting": "[1]", "result": "5.4 ^e 10^−3 s^−1"}, {"measurement": "kon^surf", "setting": "[1]", "result": "1.9 ^e 10^4 M^−1 s^−1"}, {"measurement": "ΔG°surf", "setting": "[1]", "result": "−9.0 ^e kcal mol^−1"}, {"measurement": "koff^surf", "setting": "[2]", "result": "5.3 ^e 10^−3 s^−1"}, {"measurement": "kon^surf", "setting": "[2]", "result": "3.5 ^e 10^4 M^−1 s^−1"}, {"measurement": "ΔG°surf", "setting": "[2]", "result": "−9.3 ^e kcal mol^−1"}, {"measurement": "koff^surf", "setting": "[3]", "result": "5.4 ^e 10^−3 s^−1"}, {"measurement": "kon^surf", "setting": "[3]", "result": "0.9 ^e 10^4 M^−1 s^−1"}, {"measurement": "ΔG°surf", "setting": "[3]", "result": "−8.5 ^e kcal mol^−1"}, {"measurement": "koff^surf", "setting": "mixed SAMs χ = 0.05, ref Mrksich et al. [10]", "result": 0.0054, "unit": "s⁻¹"}, {"measurement": "Kd", "setting": "[1]", "result": 0.26, "unit": "µM"}, {"measurement": "Kd", "setting": "[2]", "result": 0.15, "unit": "µM"}, {"measurement": "Kd", "setting": "[3]", "result": 0.56, "unit": "µM"}]}]}
